Data reported in US12187719B2, “Proteolysis targeting chimera (PROTACS) as degraders of SMARCA2 and /or SMARCA4” (Boehringer Ingelheim International GmbH, priority 2018, dated 2025).

What was measured:
[1] = target: T1, SMARCA2 (Homo sapiens, UniProt P51531); assay: Protein degradation assay in A549 cells, SMARCA2 levels by WES capillary electrophoresis; assay type: cell-based; conditions: A549 (NSCLC) cells with SMARCA4 mutation corrected to wild type, 18 h incubation; for DC50: concentration at which half maximal degradation is achieved, normalised to GAPDH; for Dmax: maximal amount of degraded protein relative to initial levels
T1 construct: such that the cells express both SMARCA2 and SMARCA4; endogenous in cells; host or cells: A549 (NSCLC) cells with SMARCA4 mutation corrected to wild type
Procedure: (§1) For the protein degradation assay, A549 (NSCLC) cells are used in which the inactivating SMARCA4 mutation has been corrected to wild type, such that the cells express both SMARCA2 and SMARCA4. 35000 cells in F12K Medium +10% FBS (100 μL/well) are seeded in a Greiner 96 well F-bottom plate and incubated at 37° C. overnight. Compounds are added from DMSO stock solution using ECHO Access™ workstation or HP D300 Digital Dispenser and cells are incubated at 37° C. for 18 h. Medium is removed, cells are washed with PBS, PBS is removed and 30 μL cold Lysis Buffer (1% Triton, 350 mM KCl, 10 mM Tris, Halt Phosphatase-Protease Inhibitors, 10 mM DTT, Benzonase 0.5 μL/mL) is added to each well. Cells are lysed for 20 min at 4° C. on a bioshake at 800 rpm before insoluble debris is pelleted by centrifugation for 20 min at 4000 rpm at 4° C. The supernatant is transferred to a fresh PCR plate. SMARCA2 levels are determined on a WES capillary electrophoresis instrument (Proteinsimple) using rabbit anti-SMARCA2 antibody (1:25, Sigma #HPA029981), SMARCA4 antibody (CellSignaling #49360, 1:25), PBRM1 antibody (Bethyl #A301-591A-M, 1:40) and anti-GAPDH antibody (1:100, Abcam #ab9485) for normalization.
The compounds 1-1 to 1-18 according to the invention have been tested in the above described assay. The majority of the compounds show degradation of SMARCA2 and SMARCA4 protein in A549 cells with DC50 in the range of 10-1000 nM (i.e. compound concentration at which half maximal degradation is achieved). The Dmax represents the efficiency of degradation and gives the maximal amount of degraded protein relative to initial levels. The majority of the compounds reach degradation levels >80%.

[2] = target: T2, SMARCA4 (Homo sapiens, UniProt P51532); assay: Protein degradation assay in A549 cells, SMARCA4 levels by WES capillary electrophoresis; assay type: cell-based; conditions: A549 (NSCLC) cells with SMARCA4 mutation corrected to wild type, 18 h incubation; for DC50: concentration at which half maximal degradation is achieved, normalised to GAPDH; for Dmax: maximal amount of degraded protein relative to initial levels
T2 construct: endogenous in cells; host or cells: A549 (NSCLC) cells with SMARCA4 mutation corrected to wild type
Procedure: as §1
The Dmax represents the efficiency of degradation and gives the maximal amount of degraded protein relative to initial levels.

T1 sequence (P51531 whole entry): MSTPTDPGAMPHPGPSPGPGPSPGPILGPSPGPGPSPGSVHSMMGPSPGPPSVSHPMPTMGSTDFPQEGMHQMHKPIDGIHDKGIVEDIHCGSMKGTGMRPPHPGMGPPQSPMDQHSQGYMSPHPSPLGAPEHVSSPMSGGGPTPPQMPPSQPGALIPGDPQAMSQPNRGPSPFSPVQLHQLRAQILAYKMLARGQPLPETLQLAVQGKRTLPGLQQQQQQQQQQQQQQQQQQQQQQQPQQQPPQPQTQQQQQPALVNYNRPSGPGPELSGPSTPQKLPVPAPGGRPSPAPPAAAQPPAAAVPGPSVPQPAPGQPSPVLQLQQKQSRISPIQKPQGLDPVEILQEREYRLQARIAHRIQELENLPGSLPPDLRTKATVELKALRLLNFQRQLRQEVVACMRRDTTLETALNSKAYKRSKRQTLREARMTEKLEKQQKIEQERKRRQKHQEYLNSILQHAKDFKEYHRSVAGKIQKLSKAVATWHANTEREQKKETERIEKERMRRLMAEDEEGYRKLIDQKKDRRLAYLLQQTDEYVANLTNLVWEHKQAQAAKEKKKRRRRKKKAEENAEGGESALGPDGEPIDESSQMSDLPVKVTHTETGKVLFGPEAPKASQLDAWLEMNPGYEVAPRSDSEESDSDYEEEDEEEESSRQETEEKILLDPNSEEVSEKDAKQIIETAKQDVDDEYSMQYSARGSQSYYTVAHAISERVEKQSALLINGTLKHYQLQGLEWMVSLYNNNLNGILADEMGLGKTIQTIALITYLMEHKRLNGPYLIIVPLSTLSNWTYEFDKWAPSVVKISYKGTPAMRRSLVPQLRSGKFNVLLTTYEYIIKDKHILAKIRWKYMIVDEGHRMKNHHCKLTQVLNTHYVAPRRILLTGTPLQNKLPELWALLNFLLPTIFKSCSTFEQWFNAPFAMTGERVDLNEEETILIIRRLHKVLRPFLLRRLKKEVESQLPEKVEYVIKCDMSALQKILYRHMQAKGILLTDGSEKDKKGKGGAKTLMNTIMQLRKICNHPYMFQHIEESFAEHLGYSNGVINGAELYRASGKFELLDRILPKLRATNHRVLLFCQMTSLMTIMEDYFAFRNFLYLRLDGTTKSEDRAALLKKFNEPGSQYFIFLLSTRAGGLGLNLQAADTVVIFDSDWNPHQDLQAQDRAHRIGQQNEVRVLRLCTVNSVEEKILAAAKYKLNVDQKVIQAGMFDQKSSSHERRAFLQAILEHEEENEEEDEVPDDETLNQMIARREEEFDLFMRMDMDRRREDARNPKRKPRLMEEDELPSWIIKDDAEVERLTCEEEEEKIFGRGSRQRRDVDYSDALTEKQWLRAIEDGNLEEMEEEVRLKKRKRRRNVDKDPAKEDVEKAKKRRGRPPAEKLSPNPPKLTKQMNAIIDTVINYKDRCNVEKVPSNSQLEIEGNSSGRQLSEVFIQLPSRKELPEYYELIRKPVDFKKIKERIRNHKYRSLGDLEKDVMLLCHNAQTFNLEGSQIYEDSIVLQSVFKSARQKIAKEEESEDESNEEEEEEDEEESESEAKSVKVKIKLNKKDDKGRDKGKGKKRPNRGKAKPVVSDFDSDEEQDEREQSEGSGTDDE
T2 sequence (P51532 whole entry): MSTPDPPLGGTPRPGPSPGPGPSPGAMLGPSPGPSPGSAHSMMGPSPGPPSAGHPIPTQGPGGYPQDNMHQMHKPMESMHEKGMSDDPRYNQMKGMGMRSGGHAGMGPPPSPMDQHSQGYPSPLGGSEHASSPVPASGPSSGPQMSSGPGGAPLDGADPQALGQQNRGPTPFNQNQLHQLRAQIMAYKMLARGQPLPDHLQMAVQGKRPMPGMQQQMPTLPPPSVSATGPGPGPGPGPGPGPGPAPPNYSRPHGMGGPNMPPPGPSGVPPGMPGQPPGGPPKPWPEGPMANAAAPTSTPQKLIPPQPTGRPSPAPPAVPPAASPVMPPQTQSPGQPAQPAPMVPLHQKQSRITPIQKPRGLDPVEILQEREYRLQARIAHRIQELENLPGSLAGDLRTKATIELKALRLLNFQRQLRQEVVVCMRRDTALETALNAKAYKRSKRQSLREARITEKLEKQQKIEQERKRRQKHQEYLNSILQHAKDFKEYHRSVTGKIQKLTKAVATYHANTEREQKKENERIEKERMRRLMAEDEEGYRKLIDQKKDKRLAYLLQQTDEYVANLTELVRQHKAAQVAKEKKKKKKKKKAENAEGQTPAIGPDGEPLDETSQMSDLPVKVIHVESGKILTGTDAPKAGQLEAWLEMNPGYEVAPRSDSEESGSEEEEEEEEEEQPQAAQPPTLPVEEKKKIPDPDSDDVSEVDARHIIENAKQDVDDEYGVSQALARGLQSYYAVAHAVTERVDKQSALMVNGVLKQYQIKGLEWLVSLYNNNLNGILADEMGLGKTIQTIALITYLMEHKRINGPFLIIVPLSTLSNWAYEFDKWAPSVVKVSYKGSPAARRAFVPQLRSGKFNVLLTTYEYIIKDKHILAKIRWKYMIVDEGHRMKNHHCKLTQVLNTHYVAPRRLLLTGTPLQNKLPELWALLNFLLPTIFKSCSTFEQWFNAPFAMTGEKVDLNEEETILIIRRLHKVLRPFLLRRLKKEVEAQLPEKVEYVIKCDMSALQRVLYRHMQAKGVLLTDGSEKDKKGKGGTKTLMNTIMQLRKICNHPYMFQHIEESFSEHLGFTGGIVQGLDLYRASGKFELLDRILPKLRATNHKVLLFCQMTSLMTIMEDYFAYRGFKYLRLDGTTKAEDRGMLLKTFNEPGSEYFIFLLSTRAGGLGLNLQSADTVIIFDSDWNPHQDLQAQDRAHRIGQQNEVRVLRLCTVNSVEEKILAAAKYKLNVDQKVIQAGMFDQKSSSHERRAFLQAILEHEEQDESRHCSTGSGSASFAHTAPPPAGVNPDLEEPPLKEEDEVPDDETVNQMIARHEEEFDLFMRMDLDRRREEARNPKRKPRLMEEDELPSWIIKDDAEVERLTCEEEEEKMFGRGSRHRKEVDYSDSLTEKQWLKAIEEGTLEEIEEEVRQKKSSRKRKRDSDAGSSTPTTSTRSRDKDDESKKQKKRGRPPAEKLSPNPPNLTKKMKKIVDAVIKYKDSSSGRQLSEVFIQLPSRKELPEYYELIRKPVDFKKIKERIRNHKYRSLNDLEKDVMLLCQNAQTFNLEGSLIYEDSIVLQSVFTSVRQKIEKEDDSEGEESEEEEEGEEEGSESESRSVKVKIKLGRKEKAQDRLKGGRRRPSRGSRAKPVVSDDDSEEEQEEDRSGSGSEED

Row | SMILES | DC50 [1] [nM] | Dmax [1] [%] | DC50 [2] [nM] | Dmax [2] [%]
1 | Cc1ncsc1-c1ccc(CNC(=O)[C@@H]2C[C@@H](O)CN2C(=O)[C@@H](NC(=O)C2(F)CC2)C(C)(C)C)c(OCCCCCCCN2CCN(c3cc(-c4ccccc4O)nnc3N)CC2)c1 [Compound I-1] | 450 | 45 | 1240 | 70
2 | Cc1ncsc1-c1ccc(CNC(=O)[C@@H]2C[C@@H](O)CN2C(=O)[C@@H](NC(=O)C2(F)CC2)C(C)(C)C)c(OCCc2ccc(CN3CCN(c4cc(-c5ccccc5O)nnc4N)CC3)cc2)c1 [Compound I-2] | 67 | 91 | 117 | 93
3 | Cc1ncsc1-c1ccc(CNC(=O)[C@@H]2C[C@@H](O)CN2C(=O)[C@@H](NC(=O)C2(F)CC2)C(C)(C)C)c(OCCCOCCN2CCN(c3cc(-c4ccccc4O)nnc3N)CC2)c1 [Compound I-3] | – | – | 2040 | 100
4 | Cc1ncsc1-c1ccc(CNC(=O)[C@@H]2C[C@@H](O)CN2C(=O)[C@@H](NC(=O)C2(F)CC2)C(C)(C)C)c(OCCCCOCCN2CCN(c3cc(-c4ccccc4O)nnc3N)CC2)c1 [Compound I-4] | 1000 | 70 | 735 | 87
5 | Cc1ncsc1-c1ccc(CNC(=O)[C@@H]2C[C@@H](O)CN2C(=O)[C@@H](NC(=O)C2(F)CC2)C(C)(C)C)c(OCCOCCOCCN2CCN(c3cc(-c4ccccc4O)nnc3N)CC2)c1 [Compound I-5] | 2540 | 89 | – | 84
6 | Cc1ncsc1-c1ccc(CNC(=O)[C@@H]2C[C@@H](O)CN2C(=O)[C@@H](NC(=O)C2(F)CC2)C(C)(C)C)c(OCCCCCCCOCCN2CCN(c3cc(-c4ccccc4O)nnc3N)CC2)c1 [Compound I-6] | 172 | 83 | 219 | 89
7 | Cc1ncsc1-c1ccc(CNC(=O)[C@@H]2C[C@@H](O)CN2C(=O)[C@@H](NC(=O)C2(F)CC2)C(C)(C)C)c(OCCOc2ccc(CN3CCN(c4cc(-c5ccccc5O)nnc4N)CC3)cc2)c1 [Compound I-7] | 12 | 98 | 16 | 97
8 | Cc1ncsc1-c1ccc(CNC(=O)[C@@H]2C[C@@H](O)CN2C(=O)[C@@H](NC(=O)C2(F)CC2)C(C)(C)C)c(OCc2ccc(CN3CCN(c4cc(-c5ccccc5O)nnc4N)CC3)cc2)c1 [Compound I-8] | 56 | 88 | 168 | 59
9 | Cc1ncsc1-c1ccc(CNC(=O)[C@@H]2C[C@@H](O)CN2C(=O)[C@@H](NC(=O)C2(F)CC2)C(C)(C)C)c(OCCCCOc2ccc(CN3CCN(c4cc(-c5ccccc5O)nnc4N)CC3)cc2)c1 [Compound I-9] | 236 | 85 | 170 | 83
10 | Cc1ncsc1-c1ccc(CNC(=O)[C@@H]2C[C@@H](O)CN2C(=O)[C@@H](NC(=O)C2(F)CC2)C(C)(C)C)c(OCCc2ccc(OCCN3CCN(c4cc(-c5ccccc5O)nnc4N)CC3)cc2)c1 [Compound I-10] | 41 | 99 | 26 | 99
11 | Cc1ncsc1-c1ccc(CNC(=O)[C@@H]2C[C@@H](O)CN2C(=O)[C@@H](NC(=O)C2(F)CC2)C(C)(C)C)c(OCCCOc2ccc(CN3CCN(c4cc(-c5ccccc5O)nnc4N)CC3)cc2)c1 [Compound I-11] | 26 | 99 | 16 | 100
12 | Cc1ncsc1-c1ccc(CNC(=O)[C@@H]2C[C@@H](O)CN2C(=O)[C@@H](NC(=O)C2(F)CC2)C(C)(C)C)c(OCc2ccc(CCN3CCN(c4cc(-c5ccccc5O)nnc4N)CC3)cc2)c1 [Compound I-12] | ~1000 | 40 | – | –
13 | Cc1ncsc1-c1ccc(CNC(=O)[C@@H]2C[C@@H](O)CN2C(=O)[C@@H](NC(=O)C2(F)CC2)C(C)(C)C)c(OCCc2cccc(CN3CCN(c4cc(-c5ccccc5O)nnc4N)CC3)c2)c1 [Compound I-13] | 189 | 88 | 634 | 97
14 | Cc1ncsc1-c1ccc(CNC(=O)[C@@H]2C[C@@H](O)CN2C(=O)[C@@H](NC(=O)C2(F)CC2)C(C)(C)C)c(OCCCc2ccc(CN3CCN(c4cc(-c5ccccc5O)nnc4N)CC3)cc2)c1 [Compound I-14] | 58 | 90 | 25 | 92
15 | Cc1ncsc1-c1ccc(CNC(=O)[C@@H]2C[C@@H](O)CN2C(=O)[C@@H](NC(=O)C2(F)CC2)C(C)(C)C)c(OCCc2ccc(C(=O)N3CCN(c4cc(-c5ccccc5O)nnc4N)CC3)cc2)c1 [Compound I-18] | 525 | 98 | 188 | 81
